Measurements as given in publication PMC7504435, “Combined Protein- and Ligand-Observed NMR Workflow to Screen Fragment Cocktails against Multiple Proteins: A Case Study Using Bromodomains” (Molecules, 2020).

Assays:
[1] = biological target: BPTF bromodomain (Homo sapiens, UniProt Q12830); assay: 1H CPMG NMR deconvolution of hit mixtures, BPTF; format: binding; set-up: deconvolution of the hit mixtures using the non-fluorine-labeled bromodomains; made in house; host or cells: E. coli BL21(DE3); conditions: 10 µM protein, 100 µM ligand
Experimental: (§1) The second step is a ^1H CPMG NMR deconvolution of the hit mixtures using the non-fluorine-labeled bromodomains. ^1H CPMG NMR employs a T2 filter to take advantage of the difference in transverse relaxation time between protein and small molecules to filter out the bound-state ligand(s). Unlike the PrOF NMR assay, a single protein is assayed in each experiment. A binding event is characterized by a decrease in ligand resonance intensity from the ligand alone spectrum to the ligand + protein spectrum. A hit is defined as a decrease in resonance intensity ≥ 20%. The ^1H CPMG NMR assay can be tuned by changing the protein or ligand concentration, filter length (Figure 1), or hit criteria depending on how stringent the desired hit rate is. The number of ^1H CPMG NMR deconvolution experiments is directly informed from the first step. If a mixture from the first step was only a hit for one protein, a single ^1H CPMG NMR deconvolution experiment is needed. If a mixture from the first step was a hit for both proteins, two separate ^1H CPMG NMR deconvolutions experiments are needed to determine the fragments that bind to each protein.
(§2) ^1H CPMG NMR. ^1H CPMG NMR screen data were acquired on Bruker Avance III HD 500 with the 5 mm Prodigy TCI cryoprobe inverse cryoprobe (^1H 2500:1 S/N). Competition ^1H CPMG NMR data were acquired on Bruker 700 MHz Avance with a CryoProbe 5 mm TXI (^1H S:N with H2O suppression (2mM sucrose) - 900:1) and excitation sculpting water suppression. Proteins were present at 10 µM in 50 mM phosphate, 100 mM NaCl, pH 7.4 in 100% D2O. In separate NMR tubes, a ^1H CPMG NMR pulse was applied to a 1) mixture of ligands (individual ligands present at 100 µM for the screen and 50 µM for competition experiments) and 2) ligands + protein. […] For the competition experiments, τ was increased to 4.0 ms.

[2] = biological target: PfGCN5 bromodomain (Plasmodium falciparum, UniProt Q8IB67); assay: 1H CPMG NMR deconvolution of hit mixtures, PfGCN5; format: binding; conditions: 10 µM protein, 100 µM ligand
Experimental: as §1, §2

Sequence of PfGCN5 bromodomain (Q8IB67 entry or part of it): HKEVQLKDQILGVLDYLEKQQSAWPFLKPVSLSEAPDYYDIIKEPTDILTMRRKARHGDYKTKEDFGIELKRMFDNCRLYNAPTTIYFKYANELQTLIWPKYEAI

Structure (SMILES): CC(C)(C)NC(=O)c1cnc2n(c1=O)CCS2 [Fragment F0550-0006]
- BPTF CPMG % decrease [1]: 63%

Structure (SMILES): c1cc(OCC2CO2)ccc1OCC1CO1 (centres unmarked) [Fragment F0777-0005]
- BPTF CPMG % decrease [1]: 54%

Structure (SMILES): O=C1CSCCN1 [Fragment F0848-0336]
- BPTF CPMG % decrease [1]: 33%

Structure (SMILES): Cc1nnc(SCC(=O)N2CCCCCC2)n(N)c1=O [Fragment F1847-0012]
- BPTF CPMG % decrease [1]: 36%

Structure (SMILES): CCOCCCNc1ncnc2c1cnn2C [Fragment F1852-0063]
- BPTF CPMG % decrease [1]: 38%

Structure (SMILES): C=CCNC1CCN(C)C1=O (centres unmarked) [Fragment F1905-0298]
- BPTF CPMG % decrease [1]: 46%

Structure (SMILES): C1CC2NCCOC2C1.Cl (centres unmarked) [Fragment F1905-0651]
- BPTF CPMG % decrease [1]: 75%

Structure (SMILES): CC(C)(C)OC(=O)N1CCC2CNCC21 (centres unmarked) [Fragment F1905-6593]
- PfGCN5 CPMG % decrease [2]: 21%

Structure (SMILES): O=C1CCCC2CN(Cc3ccccc3)CC12 (centres unmarked) [Fragment F1905-6609]
- PfGCN5 CPMG % decrease [2]: 50%

Structure (SMILES): CC12CCC3(C)OCC(CO)(CO1)N23 (centres unmarked) [Fragment F1983-0015]
- PfGCN5 CPMG % decrease [2]: 50%

Structure (SMILES): Cc1nnc(CN)o1.Cl [Fragment F2135-1033]
- BPTF CPMG % decrease [1]: 23%

Structure (SMILES): Cc1cc(C)n(CC2CCNCC2)n1.Cl.Cl [Fragment F2145-0759]
- BPTF CPMG % decrease [1]: 29%

Structure (SMILES): CC(C)C1NC(=O)CNC1=O (centres unmarked) [Fragment F2147-0955]
- PfGCN5 CPMG % decrease [2]: 50%

Structure (SMILES): CC(=O)NCC1COCCN1.CC(=O)NCC1COCCN1.Cl.Cl.Cl (centres unmarked) [Fragment F2147-1723]
- BPTF CPMG % decrease [1]: 23%

Structure (SMILES): CC(C)(C)OC(=O)N1CCCC(C(=O)O)C1 (centres unmarked) [Fragment F2158-1186]
- BPTF CPMG % decrease [1]: 29%

Structure (SMILES): Cc1csc(NC(=O)C2CCNCC2)n1.Cl [Fragment F2158-1471]
- BPTF CPMG % decrease [1]: 40%

Structure (SMILES): Cc1onc(N)c1S(=O)(=O)N1CCC(C)CC1 [Fragment F2158-1788]
- PfGCN5 CPMG % decrease [2]: 40%

Structure (SMILES): CC(C)(C)OC(=O)N1CC(Oc2ncccn2)C1 [Fragment F2158-1792]
- PfGCN5 CPMG % decrease [2]: 68%
- BPTF CPMG % decrease [1]: 54%

Structure (SMILES): Cc1c(C(=O)O)n[nH]c1C1CC1 [Fragment F2185-0055]
- PfGCN5 CPMG % decrease [2]: 29%
- BPTF CPMG % decrease [1]: 31%

Structure (SMILES): Cc1ccc(C)c(S(=O)(=O)N2CCCC2C(=O)O)c1 (centres unmarked) [Fragment F2189-0042]
- PfGCN5 CPMG % decrease [2]: 32%
- BPTF CPMG % decrease [1]: 35%

Structure (SMILES): CC(C)Nc1nc2c(c(=O)[nH]c(=O)n2C)n1CC(O)CO (centres unmarked) [Fragment F2477-0016]
- BPTF CPMG % decrease [1]: 34%

Structure (SMILES): CCCSc1nnc2[nH]c(=O)c(C)c(C)n12 [Fragment F2513-0609]
- BPTF CPMG % decrease [1]: 46%

Structure (SMILES): CCCCC(=O)Nc1sc(C)c(C)c1C(N)=O [Fragment F2590-0203]
- BPTF CPMG % decrease [1]: 53%

Structure (SMILES): CCCCSc1nnc(-c2cn(C)nc2OC)n1CC [Fragment F5003-0140]
- PfGCN5 CPMG % decrease [2]: 36%
- BPTF CPMG % decrease [1]: 52%

Structure (SMILES): CCC(C)Sc1nnc(-c2cn(C)nc2OC)n1CC (centres unmarked) [Fragment F5003-0141]
- PfGCN5 CPMG % decrease [2]: 36%
- BPTF CPMG % decrease [1]: 52%

Structure (SMILES): Cc1nnc(C2CCN(C(=O)c3ccsc3)CC2)s1 [Fragment F5496-0578]
- PfGCN5 CPMG % decrease [2]: 83%
- BPTF CPMG % decrease [1]: 55%

Structure (SMILES): Cc1nc(NCCNC(=O)C(C)C)cc(N2CCCC2)n1 [Fragment F5626-0027]
- PfGCN5 CPMG % decrease [2]: 75%
- BPTF CPMG % decrease [1]: 77%

Structure (SMILES): CCNc1cc(NCCNC(=O)CC(C)C)nc(C)n1 [Fragment F5626-0058]
- PfGCN5 CPMG % decrease [2]: 47%
- BPTF CPMG % decrease [1]: 50%

Structure (SMILES): CSCCC(C)(O)CNC(=O)NC1CCOCC1 (centres unmarked) [Fragment F6089-9820]
- BPTF CPMG % decrease [1]: 23%

Structure (SMILES): COC(CNC(=O)C1CN(C(=O)c2cc(C)on2)C1)OC [Fragment F6125-0675]
- BPTF CPMG % decrease [1]: 32%

Structure (SMILES): O=C(NCCC(O)C1CC1)Nc1ccccc1Cl (centres unmarked) [Fragment F6190-0472]
- BPTF CPMG % decrease [1]: 36%

Structure (SMILES): CC(C)(C)C(O)CCNC(=O)COc1ccc(F)cc1 (centres unmarked) [Fragment F6190-0594]
- BPTF CPMG % decrease [1]: 48%

Structure (SMILES): CS(=O)(=O)NCC(c1ccoc1)N1CCSCC1 (centres unmarked) [Fragment F6353-5787]
- PfGCN5 CPMG % decrease [2]: 40%

Structure (SMILES): O=C1NCCN1C(=O)NCC(c1ccsc1)N1CCC1 (centres unmarked) [Fragment F6353-7315]
- BPTF CPMG % decrease [1]: 23%

Structure (SMILES): COCC(=O)NC(C)Cc1ccc2c(c1)CCO2 (centres unmarked) [Fragment F6356-0896]
- PfGCN5 CPMG % decrease [2]: 25%

Structure (SMILES): Cc1nc(N2CCCC2)nc(C)c1NS(C)(=O)=O [Fragment F6438-0300]
- PfGCN5 CPMG % decrease [2]: 42%

Structure (SMILES): CCC(=O)NCc1nc(C)cc(N2CCOCC2)n1 [Fragment F6438-0864]
- PfGCN5 CPMG % decrease [2]: 67%

Structure (SMILES): CC(C)CC(=O)NCc1nccc(N(C)C)n1 [Fragment F6438-1301]
- PfGCN5 CPMG % decrease [2]: 50%

Structure (SMILES): CC(C)C(=O)N1CCN(c2cnnc(N(C)C)c2)CC1 [Fragment F6438-1468]
- PfGCN5 CPMG % decrease [2]: 100%
- BPTF CPMG % decrease [1]: 62%

Structure (SMILES): CC(C)CS(=O)(=O)C1CN(S(=O)(=O)C(C)C)C1 [Fragment F6442-1971]
- PfGCN5 CPMG % decrease [2]: 22%

Structure (SMILES): CCCCS(=O)(=O)N1CC(S(=O)(=O)CC(C)C)C1 [Fragment F6442-1973]
- PfGCN5 CPMG % decrease [2]: 26%

Structure (SMILES): COc1ccccc1C(CNC(=O)C1CC1)OC (centres unmarked) [Fragment F6451-0004]
- PfGCN5 CPMG % decrease [2]: 26%

Structure (SMILES): COC(C)(CNS(C)(=O)=O)c1cccc(Cl)c1 (centres unmarked) [Fragment F6452-1288]
- PfGCN5 CPMG % decrease [2]: 57%
- BPTF CPMG % decrease [1]: 32%

Structure (SMILES): COc1ccc(C2CCCCN(S(C)(=O)=O)C2)cc1 (centres unmarked) [Fragment F6464-1254]
- PfGCN5 CPMG % decrease [2]: 33%
- BPTF CPMG % decrease [1]: 69%

Structure (SMILES): Cc1cc(C(=O)N2CC(N3C(=O)CSC3=O)C2)n(C)n1 [Fragment F6473-4843]
- PfGCN5 CPMG % decrease [2]: 25%

Structure (SMILES): CC(C)(C)C(=O)N1CCSC(c2ccccc2)CC1 (centres unmarked) [Fragment F6481-0067]
- PfGCN5 CPMG % decrease [2]: 53%

Structure (SMILES): O=C(C1CC1)N1CCCC(Cc2nc(C3CC3)no2)C1 (centres unmarked) [Fragment F6497-0456]
- PfGCN5 CPMG % decrease [2]: 100%
- BPTF CPMG % decrease [1]: 100%

Structure (SMILES): CC(C(=O)NCc1cnn2c1CCCC2)n1cccn1 (centres unmarked) [Fragment F6513-5793]
- PfGCN5 CPMG % decrease [2]: 49%
- BPTF CPMG % decrease [1]: 72%

Structure (SMILES): O=C(C1CC=CCC1)N1CCC(c2ccc3c(c2)OCO3)C1 (centres unmarked) [Fragment F6518-4331]
- PfGCN5 CPMG % decrease [2]: 58%

Structure (SMILES): OCC1CCCN1c1cccc(C(F)(F)F)n1 (centres unmarked) [Fragment F6541-4533]
- BPTF CPMG % decrease [1]: 48%

Structure (SMILES): Cc1ccc(S(=O)(=O)O)cc1.N#CC1CNCCO1 [Fragment F8880-7458]
- PfGCN5 CPMG % decrease [2]: 24%

Structure (SMILES): COCCCn1c(C(=O)O)cc2c(=O)n(C)c(=O)n(C)c21 [Fragment F9995-1074]
- PfGCN5 CPMG % decrease [2]: 41%
